The text below walks through data of ChEMBL document CHEMBL3751735, “Discovery of 2-(4-sulfonamidophenyl)-indole 3-carboxamides as potent and selective inhibitors with broad hepatitis C virus genotype activity targeting HCV NS4B” (Bioorg Med Chem Lett, 2016).

In data set [1] the test system is Hepatitis C virus. Put plainly: Antiviral activity against HCV genotype 1b Con1 bicistronic replicon infected in human Huh7 cells assessed as replicon RNA expression measured 3 days post dose by real time RT-PCR analysis. It counts as functional, organism-based, Hepacivirus hominis. To be noted: isolate Con1, Huh-7, 72 h. A general note: Replicon systems follow genome replication, usually without infectious particles.

Data set [2] deals with Hepatitis C virus. Put plainly: Antiviral activity against HCV genotype 3a S52/SG-Feo(SH) infected in human HuH7.5 cells measured 3 days post dose by Luciferase assay. Format: functional, organism-based, Hepacivirus hominis. The settings on record: Huh-7, 72 h.
A short description of data set [3]: AUC (0 to 6 hrs) in Sprague-Dawley rat plasma at 10 mg/kg, po measured at 30 mins to 6 hrs post dose. It counts as ADME, organism-based. Details: dose 10 mg/kg, time < 6 hr, route oral.
Data set [4] can be described thus: Ratio of drug level in liver to plasma in Sprague-Dawley rat at 10 mg/kg, po measured 6 hrs post dose. Format: ADME, organism-based. The settings on record: liver and plasma.
Data set [5] concerns Hepatitis C virus. Put plainly: Antiviral activity against HCV genotype 1a H77S bicistronic replicon infected in human Huh7 cells assessed as replicon RNA expression measured 3 days post dose by real time RT-PCR analysis. It counts as functional, organism-based, Hepacivirus hominis. The settings on record: Huh-7, 72 h.
In data set [6] the test system is Hepatitis C virus. Put plainly: Antiviral activity against HCV genotype 2a JFH-1 infected in human HuH7.5 cells assessed as HCV RNA expression measured 72 hrs post dose by qRT-PCR analysis. Format: functional, organism-based, Hepacivirus hominis. The settings on record: JFH-1, Huh-7, 72 h.
A short description of data set [7]: Toxicity against human HuH7 cells harboring HCV genotype 1b bicistronic replicon assessed as inhibition of GAPDH mRNA expression measured 3 days post dose by real time RT-PCR analysis. It counts as cell-based, Huh-7.
The subject of data set [8] is Hepatitis C virus. Put plainly: Antiviral activity against HCV genotype 1b harboring NS4B V105M mutant relative to wild type HCV genotype 1b. Format: functional, Hepacivirus hominis.
Data set [9] deals with Hepatitis C virus. Put plainly: Antiviral activity against HCV genotype 1b harboring NS4B F98C mutant relative to wild type HCV genotype 1b. Format: functional, Hepacivirus hominis.

Structures are written as SMILES.

In general, EC50 refers to the concentration at which the effect is half-maximal. As usually defined, the AUC(0-t) is exposure summed from dosing to a finite time, without extrapolation to infinity. Read a low AUC(0-t) as low exposure. By Kp is commonly meant the ratio of the level in a tissue or fluid to that in plasma or blood. What is called IC50 is the point on the concentration scale where inhibition reaches its midpoint. In the case of `CC(C)(C)S(=O)(=O)Nc1ccc(-c2c(C(N)=O)c3cc(F)c(OC(F)F)cc3n2C2CCCCC2)cn1`, the EC50 with Hepatitis C virus [1] came to 0.006 µM; in the data set on Hepatitis C virus [2], 0.119 µM; with Hepatitis C virus [5], 0.01 µM; in the data set on Hepatitis C virus [6], 0.38 µM. Also, in data set [3], the AUC(0-t) at 6 h was determined as 0.204 µM·h. Further, the Kp at 6 h in data set [4] turned out to be 332. Further, the IC50 at 3 days in data set [7] is more than 10 µM.
In the case of `Cc1cc2c(cc1F)c(C(N)=O)c(-c1ccc(NS(=O)(=O)C(C)(C)C)cc1)n2C1CCCCC1`, the EC50 in the data set on Hepatitis C virus [1] stood at 0.002 µM; with Hepatitis C virus [2] it was 0.08 µM; in the data set with Hepatitis C virus [5], 0.008 µM; in the data set on Hepatitis C virus [6], 0.135 µM. In [3], this compound registered an AUC(0-t) at 6 h of 0.685 µM·h. Moreover, the Kp at 6 h in data set [4] is 11. Besides, the IC50 at 3 days in [7] was more than 10 µM.
`Cc1cc2c(cc1F)c(C(N)=O)c(-c1ccc(NS(=O)(=O)C(C)(C)C)cc1)n2C1CCCC1`: the EC50 with Hepatitis C virus [1] was found to be 0.039 µM; in the data set with Hepatitis C virus [2] it was 0.317 µM; with Hepatitis C virus [5] it was 0.02 µM; in the data set with Hepatitis C virus [6], 0.01 µM. Also, the AUC(0-t) at 6 h in data set [3] was 0.457 µM·h. In addition, the Kp at 6 h in [4] was 15. The IC50 at 3 days in data set [7] was more than 10 µM.
On to `CC(C)(C)S(=O)(=O)Nc1ccc(-c2c(C(N)=O)c3cc(F)c(OC(F)F)cc3n2-c2ccccc2)c(F)c1`, for which the EC50 in the data set with Hepatitis C virus [1] stood at 0.002 µM; in the data set on Hepatitis C virus [2] it was 0.004 µM; with Hepatitis C virus [5], 0.003 µM; in the data set with Hepatitis C virus [6], 0.037 µM. This compound also returned an AUC(0-t) at 6 h in [3] of 7.93 µM·h. Moreover, the Kp at 6 h in data set [4] is 57. The IC50 at 3 days in [7] is more than 10 µM.
With `CC(C)(C)S(=O)(=O)Nc1ccc(-c2c(C(N)=O)c3cc(F)c(OC(F)F)cc3n2C2CCCCC2)cc1`, the concentration giving a half-maximal response (EC50) amounted to 0.002 µM in the data set on Hepatitis C virus [1], 0.003 µM in the data set with Hepatitis C virus [2], 0.001 µM in the data set on Hepatitis C virus [5] and 0.035 µM in the data set on Hepatitis C virus [6]. The AUC(0-t) at 6 h in [3] turned out to be 0.831 µM·h. Moreover, the Kp at 6 h in data set [4] is 25. The “fold change (FC)” value in the data set with Hepatitis C virus [8] is reported as more than 55; in the data set on Hepatitis C virus [9], “>=22”. Further, in data set [7], the IC50 at 3 days is more than 10 µM.
Consider `Cc1cc2c(cc1F)c(C(N)=O)c(-c1ccc(NS(=O)(=O)C(C)(C)C)cc1)n2-c1ccccc1`, for which the EC50 with Hepatitis C virus [1] was determined as 0.014 µM; in the data set with Hepatitis C virus [2] it was 0.374 µM; in the data set on Hepatitis C virus [5], 0.18 µM; in the data set with Hepatitis C virus [6], 0.09 µM. The AUC(0-t) at 6 h in [3] is 14.9 µM·h. The Kp at 6 h in data set [4] stood at 24. Moreover, the IC50 at 3 days in data set [7] is more than 10 µM.
With `Cc1cc2c(cc1F)c(C(N)=O)c(-c1ccc(NS(=O)(=O)C(C)(C)C)cc1)n2C1CCC1`, the EC50 with Hepatitis C virus [1] stood at 0.045 µM; in the data set with Hepatitis C virus [2], 0.348 µM; with Hepatitis C virus [5], 0.09 µM; in the data set on Hepatitis C virus [6], 0.01 µM. Moreover, the area under the curve AUC(0-t) at 6 h in [3] stood at 1.45 µM·h. The Kp at 6 h in data set [4] amounted to 15. Further, in data set [7], the IC50 at 3 days was more than 10 µM.
Take `Cc1cc(NS(=O)(=O)C(C)(C)C)ccc1-c1c(C(N)=O)c2cc(F)c(OC(F)F)cc2n1C1CCCCC1`: the EC50 in the data set on Hepatitis C virus [1] is 0.01 µM; in the data set with Hepatitis C virus [2], 0.0005 µM; in the data set on Hepatitis C virus [5], 0.001 µM; with Hepatitis C virus [6], 0.024 µM. For the same compound, the AUC(0-t) at 6 h in data set [3] was 4.96 µM·h. The Kp at 6 h in [4] was 62. In data set [7], the IC50 at 3 days was more than 10 µM.
For `CC(C)(C)S(=O)(=O)Nc1ccc(-c2c(C(N)=O)c3cc(F)c(OC(F)F)cc3n2C2CCCCC2)c(Cl)c1`, the concentration for a half-maximal effect (EC50) in the data set with Hepatitis C virus [1] was 0.002 µM; in the data set on Hepatitis C virus [2], 0.0002 µM; with Hepatitis C virus [5], less than 0.001 µM; in the data set with Hepatitis C virus [6] it was 0.028 µM. In data set [3], this compound returned an AUC(0-t) at 6 h of 2.1 µM·h. Moreover, the Kp at 6 h in data set [4] was determined as 115. Further, the IC50 at 3 days in [7] is more than 10 µM.
On to `CC(C)(C)S(=O)(=O)Nc1ccc(-c2c(C(N)=O)c3cc(F)c(OC(F)F)cc3n2-c2ccccc2)cc1`, for which the EC50 in the data set with Hepatitis C virus [1] turned out to be 0.002 µM; with Hepatitis C virus [2] it was 0.012 µM; in the data set with Hepatitis C virus [5] it was 0.002 µM; in the data set on Hepatitis C virus [6], 0.062 µM. The compound also gave an AUC(0-t) at 6 h in data set [3] of 14.4 µM·h. In data set [4], the Kp at 6 h is 26. For the same compound, the IC50 at 3 days in data set [7] was more than 1.1 µM.
Turning to `CC(C)(C)S(=O)(=O)Nc1ccc(-c2c(C(N)=O)c3cc(F)c(OC(F)F)cc3n2C2CCCC2)c(Cl)c1`, the EC50 in the data set with Hepatitis C virus [1] came to 0.002 µM; with Hepatitis C virus [2] it was 0.058 µM; in the data set with Hepatitis C virus [5], 0.007 µM; in the data set with Hepatitis C virus [6], 0.03 µM. This compound also displayed an AUC(0-t) at 6 h in [3] of 9.96 µM·h. The Kp at 6 h in [4] was 65. In data set [7], the half-maximal inhibitory concentration (IC50) at 3 days was found to be 4.5 µM.
On to `CCc1cc2c(cc1F)c(C(N)=O)c(-c1ccc(NS(=O)(=O)C(C)(C)C)cc1)n2C1CCCC1`, for which the EC50 in the data set with Hepatitis C virus [1] is 0.007 µM; with Hepatitis C virus [2] it was 0.115 µM; with Hepatitis C virus [5], 0.13 µM; in the data set with Hepatitis C virus [6] it was 0.02 µM. For the same compound, the AUC(0-t) at 6 h in [3] stood at 4.12 µM·h. Besides, in data set [4], the Kp at 6 h was determined as 27. Also, in data set [7], the IC50 at 3 days was more than 10 µM.
Consider `CC(C)(C)S(=O)(=O)Nc1ccc(-c2c(C(N)=O)c3cc(F)c(OC(F)F)cc3n2C2CCCC2)cc1`, for which the EC50 with Hepatitis C virus [1] stood at 0.005 µM; in the data set with Hepatitis C virus [2], 0.02 µM; in the data set with Hepatitis C virus [5], 0.004 µM; in the data set with Hepatitis C virus [6] it was 0.006 µM. Further, the AUC(0-t) at 6 h in data set [3] amounted to 0.382 µM·h. Besides, in data set [4], the Kp at 6 h was determined as 47. Further, the IC50 at 3 days in data set [7] is more than 10 µM.
For `CC(C)(C)S(=O)(=O)Nc1ccc(-c2c(C(N)=O)c3cc(F)c(OC(F)F)cc3n2C2CCCC2)c(F)c1`, the EC50 in the data set on Hepatitis C virus [1] was determined as 0.002 µM; with Hepatitis C virus [5], 0.01 µM; with Hepatitis C virus [6] it was 0.006 µM. For the same compound, the AUC(0-t) at 6 h in data set [3] stood at 0.37 µM·h. Also, in [7], the IC50 at 3 days is more than 10 µM.
On to `Cc1cc2c(cc1F)c(C(N)=O)c(-c1ccc(NS(=O)(=O)C(C)(C)C)cc1)n2-c1ccc(Cl)cc1`, for which the EC50 with Hepatitis C virus [1] was found to be 0.043 µM. Moreover, the half-inhibitory concentration (IC50) at 3 days in data set [7] is more than 10 µM.
Taken in the same sequence, the figures for `CCc1cc2c(cc1F)c(C(N)=O)c(-c1cnc(NS(=O)(=O)C(C)(C)C)nc1)n2C1CCCCC1` were 2.1 µM and more than 10 µM.
For the compound `CC(C)(C)S(=O)(=O)Nc1ccc(-c2c(C(N)=O)c3cc(F)c(OC(F)F)cc3n2C2CCCCC2)c(F)c1`, the EC50 in the data set with Hepatitis C virus [1] came to 0.002 µM; with Hepatitis C virus [2] it was 0.0004 µM; with Hepatitis C virus [5], 0.002 µM; in the data set with Hepatitis C virus [6], 0.023 µM. Also, the AUC(0-t) at 6 h in data set [3] is 3.09 µM·h. Besides, the Kp at 6 h in data set [4] was determined as 70. Also, in [7], the IC50 at 3 days was more than 10 µM.
Turning to `CC(C)(C)S(=O)(=O)Nc1ccc(-c2c(C(N)=O)c3c(F)cc(C(F)F)cc3n2C2CCCC2)cc1`, in the data set on Hepatitis C virus [1], the EC50 was determined as 0.004 µM. In [7], the half-inhibitory concentration (IC50) at 3 days is more than 10 µM.
